Experimental findings from patent US11453660B2, “Androgen receptor and glucocorticoid receptor modulators” (ONCOSTELLAE, S.L., priority 2017, dated 2022) are described below.

In assay [1] the target is T1, Human Glucocorticoid Receptor (Homo sapiens, UniProt P04150).
T1 construct: endogenous in cells; host or cells: cytosol from IM-9 cell line
T1 sequence (P04150 1-777): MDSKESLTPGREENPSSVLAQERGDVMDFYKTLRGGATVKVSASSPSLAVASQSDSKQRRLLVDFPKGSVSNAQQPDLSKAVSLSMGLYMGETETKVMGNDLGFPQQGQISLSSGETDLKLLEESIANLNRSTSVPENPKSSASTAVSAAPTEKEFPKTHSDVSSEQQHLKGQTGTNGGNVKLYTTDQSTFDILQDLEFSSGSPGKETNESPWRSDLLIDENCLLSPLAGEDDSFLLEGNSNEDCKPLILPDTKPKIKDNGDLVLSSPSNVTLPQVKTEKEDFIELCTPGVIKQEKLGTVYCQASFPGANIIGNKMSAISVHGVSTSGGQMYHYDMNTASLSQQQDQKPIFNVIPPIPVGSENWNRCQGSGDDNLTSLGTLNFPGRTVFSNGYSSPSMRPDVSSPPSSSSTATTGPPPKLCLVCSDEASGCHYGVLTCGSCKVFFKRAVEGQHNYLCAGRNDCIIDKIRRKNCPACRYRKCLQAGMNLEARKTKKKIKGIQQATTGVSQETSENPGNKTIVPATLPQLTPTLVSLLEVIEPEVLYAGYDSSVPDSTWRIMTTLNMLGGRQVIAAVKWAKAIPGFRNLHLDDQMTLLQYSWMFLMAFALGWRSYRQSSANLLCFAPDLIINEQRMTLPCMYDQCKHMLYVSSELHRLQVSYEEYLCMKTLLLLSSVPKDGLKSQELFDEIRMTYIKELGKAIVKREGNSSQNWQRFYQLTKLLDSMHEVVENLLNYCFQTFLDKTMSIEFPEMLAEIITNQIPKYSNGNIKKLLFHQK
The assay is described as follows: Competition Binding in IM-9 Human Glucocorticoid Receptor (GR IM-9). As to conditions: cytosol from IM-9 cell line, 1.5 nM [3H]-Dexamethasone, 4° C. for 6 hours. The method, boiled down:
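Radioligand competition using 100 μg IM-9 cell cytosol and 1.5 nM [3H]-dexamethasone, incubated 6 h at 4° C in TES/molybdate buffer, pH 7.4. Filtration on PEI-treated GF/B filters, scintillation counting; nonspecific binding defined with 10 μM triamcinolone.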

For another assay, the target named is T2, human androgen receptor (Homo sapiens, UniProt P10275, T878A).
T2 construct: endogenously expressed human androgen receptor using the LnCap prostate cancer cell line; endogenous in cells; host or cells: LNCaP prostate cancer cell line (whole cells)
T2 sequence (P10275 1-920 T878A): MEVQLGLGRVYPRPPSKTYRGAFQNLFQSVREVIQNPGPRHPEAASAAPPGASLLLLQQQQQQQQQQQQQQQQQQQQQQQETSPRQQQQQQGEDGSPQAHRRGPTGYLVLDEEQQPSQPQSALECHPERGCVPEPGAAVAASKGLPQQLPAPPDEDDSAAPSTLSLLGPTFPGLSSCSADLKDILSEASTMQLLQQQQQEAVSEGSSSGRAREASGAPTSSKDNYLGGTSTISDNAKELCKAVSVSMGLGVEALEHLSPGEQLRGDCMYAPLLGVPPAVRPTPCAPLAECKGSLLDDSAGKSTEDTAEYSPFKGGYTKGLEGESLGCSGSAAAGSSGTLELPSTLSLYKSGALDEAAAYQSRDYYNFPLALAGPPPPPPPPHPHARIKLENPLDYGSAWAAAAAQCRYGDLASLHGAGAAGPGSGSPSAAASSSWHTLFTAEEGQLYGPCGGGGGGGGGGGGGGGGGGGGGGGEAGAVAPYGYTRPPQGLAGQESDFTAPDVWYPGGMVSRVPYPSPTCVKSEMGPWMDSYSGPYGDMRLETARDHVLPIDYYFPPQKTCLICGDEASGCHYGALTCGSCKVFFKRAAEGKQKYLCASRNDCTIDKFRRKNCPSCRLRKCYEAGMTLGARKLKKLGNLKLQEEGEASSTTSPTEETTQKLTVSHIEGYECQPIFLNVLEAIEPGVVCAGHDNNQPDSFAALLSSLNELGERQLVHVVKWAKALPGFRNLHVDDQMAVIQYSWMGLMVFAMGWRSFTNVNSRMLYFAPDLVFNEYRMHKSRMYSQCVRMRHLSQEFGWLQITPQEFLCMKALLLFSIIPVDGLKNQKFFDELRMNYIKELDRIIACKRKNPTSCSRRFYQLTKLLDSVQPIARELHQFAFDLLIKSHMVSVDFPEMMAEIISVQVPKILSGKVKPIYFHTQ
The assay can be described thus: Human Androgen Receptor Binding (radioligand binding, LnCap prostate cancer cell line). As to conditions: LnCap cells, displacement of [^3H]-methyltrienolone, 2 hours at 37° C.; read-out: AR LNCaP. The method, boiled down: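 Whole-cell displacement of [3H]-methyltrienolone from endogenous AR (T878A) in LnCap cells, in RPMI with 0.1% BSA and triamcinolone acetonide. Compounds 10 μM to 0.1 nM in 1:10 steps, 2 h at 37 °C; cells washed, SDS-lysed, bound radioactivity by scintillation counting for IC50.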

As to `COC(=O)C1=C(C)NC(C=O)=C(C(=O)OC)C1c1csc2c(C#N)cccc12` (centres unmarked) [Example C119, Dimethyl 4-(7-cyanobenzo[b]thiophen-3-yl)-2-formyl-6-methyl-1,4-dihydropyridine-3,5-dicarboxylate], the IC50 in assay [1] is < 100 nM; on human androgen receptor, ≥ 1000 nM.
Regarding `CC1=C(C#N)C(c2csc3c(C#N)cccc23)C(C(=O)OCC2CC2)=C(N)N1` (centres unmarked) [Example D24, cyclopropylmethyl 2-amino-5-cyano-4-(7-cyanobenzo[b]thiophen-3-yl)-6-methyl-1,4-dihydropyridine-3-carboxylate], the IC50 in assay [1] was < 100 nM; on human androgen receptor it was 100 to 1000 nM.
As for `COC(=O)C1=C(C)NC(N)=C(C(=O)OC2CCCC2)C1c1csc2c(C#N)cccc12` (centres unmarked) [Example D27, 3-Cyclopentyl 5-methyl 2-amino-4-(7-cyanobenzo[b]thiophen-3-yl)-6-methyl-1,4-dihydropyridine-3,5-dicarboxylate], the values for the IC50 (in assay [1]; at human androgen receptor) were < 100 nM and 100 to 1000 nM, respectively.
Consider `CC(=O)C1=C(C)NC(N)=C(C(=O)OCC2CCCCC2)C1c1csc2c(C#N)cccc12` (centres unmarked) [Example D30, Cyclohexylmethyl 5-acetyl-2-amino-4-(7-cyanobenzo[b]thiophen-3-yl)-6-methyl-1,4-dihydropyridine-3-carboxylate], for which the IC50 in assay [1] is < 100 nM; on human androgen receptor, 100 to 1000 nM.
For the molecule `CC1=C(C(=O)C2CC2)C(c2csc3c(C#N)cccc23)C(C(=O)OCC2CC2)=C(N)N1` (centres unmarked) [Example D31, Cyclopropylmethyl 2-amino-4-(7-cyanobenzo[b]thiophen-3-yl)-5-(cyclopropanecarbonyl)-6-methyl-1,4-dihydropyridine-3-carboxylate], the IC50 was < 100 nM in assay [1] and 100 to 1000 nM at human androgen receptor.
Regarding `CC(=O)C1=C(C)NC(N)=C(C(=O)OCc2cccc(F)c2)C1c1csc2c(C#N)cccc12` (centres unmarked) [Example D32, 3-Fluorobenzyl 5-acetyl-2-amino-4-(7-cyanobenzo[b]thiophen-3-yl)-6-methyl-1,4-dihydropyridine-3-carboxylate], the IC50 was < 100 nM in assay [1] and 100 to 1000 nM at human androgen receptor.
Turning to `CC1=C(C(=O)OC2CC2)C(c2csc3c(C#N)cccc23)C(C(=O)OCC2CC2)=C(N)N1` (centres unmarked) [Example D37, 5-Cyclopropyl 3-(cyclopropylmethyl) 2-amino-4-(7-cyanobenzo[b]thiophen-3-yl)-6-methyl-1,4-dihydropyridine-3,5-dicarboxylate], the IC50 is < 100 nM in assay [1] and 100 to 1000 nM at human androgen receptor.
Turning to `COC(=O)C1=C(C)NC(N)=C(C(=O)OCC2CC2)C1c1csc2c(C#N)cc(F)cc12` (centres unmarked) [Example D39, 3-(Cyclopropylmethyl) 5-methyl 2-amino-4-(7-cyano-5-fluorobenzo[b]thiophen-3-yl)-6-methyl-1,4-dihydropyridine-3,5-dicarboxylate], the figures for the IC50 (in assay [1]; on human androgen receptor) were < 100 nM and 100 to 1000 nM, respectively.
For the molecule `COC(=O)C1=C(C)NC(N)=C(C(=O)OC(C)C)C1c1csc2c(C#N)cccc12` (centres unmarked) [Example D41, 3-Isopropyl 5-methyl 2-amino-4-(7-cyanobenzo[b]thiophen-3-yl)-6-methyl-1,4-dihydropyridine-3,5-dicarboxylate], the IC50 is < 100 nM in assay [1] and 100 to 1000 nM on human androgen receptor.
Consider `COC(=O)C1=C(C)NC(N)=C(C(=O)OCC(C)(C)C)C1c1csc2c(C#N)cccc12` (centres unmarked) [Example D43, 5-Methyl 3-neopentyl 2-amino-4-(7-cyanobenzo[b]thiophen-3-yl)-6-methyl-1,4-dihydropyridine-3,5-dicarboxylate], for which the values for the IC50 (in assay [1]; at human androgen receptor) were < 100 nM and 100 to 1000 nM, respectively.
The like results for `CC1=C(C(=O)OCC2CC2)C(c2csc3c(C#N)cccc23)C(C(=O)OCC2CC2)=C(N)N1` (centres unmarked) [Example D46, Bis(cyclopropylmethyl) 2-amino-4-(7-cyanobenzo[b]thiophen-3-yl)-6-methyl-1,4-dihydropyridine-3,5-dicarboxylate] were, in that order, < 100 nM and ≥ 1000 nM.
As for `C#CCOC(=O)C1=C(C)NC(N)=C(C(=O)OCC2CC2)C1c1csc2c(C#N)cccc12` (centres unmarked) [Example D47, 3-(Cyclopropylmethyl) 5-(prop-2-yn-1-yl) 2-amino-4-(7-cyanobenzo[b]thiophen-3-yl)-6-methyl-1,4-dihydropyridine-3,5-dicarboxylate], the figures for the IC50 (in assay [1]; on human androgen receptor) were < 100 nM and 100 to 1000 nM, respectively.
With `COC(=O)C1=C(C2CC2)NC(C)=C(C(C)=O)C1c1csc2ncccc12` (centres unmarked) [Example J23, Methyl 5-acetyl-2-cyclopropyl-6-methyl-4-(thieno[2,3-b]pyridin-3-yl)-1,4-dihydropyridine-3-carboxylate], the IC50 was 100 to 1000 nM in assay [1] and < 100 nM at human androgen receptor.
As to `COC(=O)C1=C(C2CC2)NC(C)=C(C(C)=O)C1c1csc2c(Br)cccc12` (centres unmarked) [Example J26, Methyl 5-acetyl-4-(7-bromobenzo[b]thiophen-3-yl)-2-cyclopropyl-6-methyl-1,4-dihydropyridine-3-carboxylate], the IC50 (in assay [1]; at human androgen receptor) was < 100 nM each time.
Regarding `CC(=O)C1=C(C)NC(C2CC2)=C(C(=O)OCc2ccncc2)C1c1csc2c(Br)cccc12` (centres unmarked) [Example J41, Pyridin-4-ylmethyl 5-acetyl-4-(7-bromobenzo[b]thiophen-3-yl)-2-cyclopropyl-6-methyl-1,4-dihydropyridine-3-carboxylate], the IC50 (in assay [1]; on human androgen receptor) was < 100 nM throughout.
With `CC(=O)C1=C(C)NC(C2CC2)=C(C(=O)OCc2ccc(F)cc2)C1c1csc2ncccc12` (centres unmarked) [Example J42, 4-fluorobenzyl 5-acetyl-2-cyclopropyl-6-methyl-4-(thieno[2,3-b]pyridin-3-yl)-1,4-dihydropyridine-3-carboxylate], the IC50 was < 100 nM in assay [1] and 100 to 1000 nM at human androgen receptor.
With `CC(=O)C1=C(C)NC(C)=C(C(=O)OCc2ccc(-c3ccncc3)cc2)C1c1csc2ncccc12` (centres unmarked) [Example L1, 4-(pyridin-4-yl)benzyl 5-acetyl-2,6-dimethyl-4-(thieno[2,3-b]pyridin-3-yl)-1,4 dihydropyridine-3-carboxylate], the results for the IC50 (in assay [1]; on human androgen receptor) were < 100 nM and ≥ 1000 nM, respectively.
The matching figures for `CC(=O)C1=C(C)NC(C)=C(C(=O)OCc2ccc(-c3cccnc3)cc2)C1c1csc2ncccc12` (centres unmarked) [Example L2, 4-(pyridin-3-yl)benzyl 5-acetyl-2,6-dimethyl-4-(thieno[2,3-b]pyridin-3-yl)-1,4-dihydropyridine-3-carboxylate]: < 100 nM and ≥ 1000 nM.
The matching figures for `CC(=O)C1=C(C)NC(C)=C(C(=O)OCc2cccc(-c3ccncc3)c2)C1c1csc2ncccc12` (centres unmarked) [Example L3, 3-(pyridin-4-yl)benzyl 5-acetyl-2,6-dimethyl-4-(thieno[2,3-b]pyridin-3-yl)-1,4-dihydropyridine-3-carboxylate]: < 100 nM and < 100 nM.
